Test results taken from patent publication US9596857B2, “Insecticidal and miticidal mixtures of bifenthrin and cyano-pyrethroids” (FMC Corporation, priority 2005, dated 2017).
Several values for one entry are separate records, joined by “and”; a condition that tells them apart may be missing. Identical values can stand only once.

Experiments:
Assay type in all cases: in vivo
[1] = test system: Colorado potato beetle (Leptinotarsa decemlineata [Say]); assay: Foliar leaf-dip test against adult Colorado potato beetle on tomato plants; conditions: technical, 72 h
Experimental: (§1) Candidate insecticide compositions were evaluated for activity in foliar evaluations against tobacco budworm (Heliothis virescens [Fabricius]), Colorado potato beetle (Leptinotarsa decemlineata [Say]), corn earworm (Helicoverpa zea [Boddie]), cotton aphid (Aphis gossypii [Glover]) and twospotted spider mite (Tetranychus urticae [Koch]). Each test included controls in which the formulation or test solution minus the active ingredients were applied.
In tests against adult Colorado potato beetle, the leaves of 6-8 inch tall tomato plants (Lycopersicon lycoper) were dipped into the test solutions of the test formulations to provide application rates as high as 1000 ppm of the active ingredients. The test formulations were dissolved in distilled water containing 10% acetone and 0.25% of a non-ionic detergent [an octylphenolpoly(ethyleneglycolether)x, available from Roche Applied Science as Triton X-100] to the proper concentrations. The treated plants were transferred to a hood where they were kept until the leaves had dried. For tests in which the active ingredients were not formulated, i.e. the technical active ingredient was used; a stock solution of the test compound was made. For example, a 100 ppm stock solution may be made by dissolving 4 milligrams of the test compound in 4 mL of acetone and adding the solution to 36 mL of an aqueous Triton X-100 solution (one drop of Triton X-100 dissolved in 100 mL of distilled water). Further dilutions can be made by adding distilled water containing 10% acetone and 0.25% of Triton X-100.
The treated tomato plants were removed from their pots by cutting the stems just above the soil line. Each excised plant was placed into an individual 8-ounce paper cup. Ten adult Colorado potato beetles were placed into each paper cup, taking care not to cause injury. An opaque plastic lid was placed on each cup, for a 72 hour exposure period and held at 25° C., 50% relative humidity with a photo-period of 12 hours light and 12 hours dark. At the end of the 72 hour exposure period, the cups were opened, and the numbers of dead and live insects were counted. Using the insect counts, the activity of the test chemical was expressed in percent control. Percent control is derived from the total number of dead insects (TD) compared to the total number of insects (TI) in the test: […]

[2] = test system: corn earworm (Helicoverpa zea [Boddie]); assay: Cotton leaf-disc dip test against corn earworm; conditions: technical, 96 h
Experimental: as §1
In tests against corn earworm, one inch diameter leaf discs cut from cotton plant leaves (Gossypium hirsutum) were dipped into the test solutions of the test formulations to provide application rates as high as 1000 ppm of the active ingredients. The test formulations were dissolved in distilled water containing 10% acetone and 0.25% of a non-ionic detergent [an octylphenolpoly(ethyleneglycolether)x, available from Roche Applied Science as Triton X-100] to the proper concentrations. Cotton wicks, 0.5 inch diameter by 2 inches long, were soaked with distilled water and placed into the wells of a 32 well rearing tray (available as Rearing Tray Bio-Fit 32, from C-D International, Pittman, N.J.), one wick per well. Treated leaf discs were placed on top of the cotton wicks, one leaf disc per wick, and the rearing tray was transferred to a hood where they were kept until the leaf discs had dried. Each disc was infested with 1 late second to early third instar corn earworm, replicated sixteen times per rate of application, and a lid was placed on the rearing tray. The rearing trays were held in a growth chamber for 96 hours at 25° C., 50% relative humidity and a photoperiod of 12 hours light/12 hours dark. For tests in which the active ingredients were not formulated, i.e. the technical active ingredient was used; a stock solution of the test compound was made. For example, a 100 ppm stock solution may be made by dissolving 4 milligrams of the test compound in 4 mL of acetone and adding the solution to 36 mL of an aqueous Triton X-100 solution (one drop of Triton X-100 dissolved in 100 mL of distilled water). Further dilutions can be made by adding distilled water containing 10% acetone and 0.25% of Triton X-100.
(§2) At the end of the 96 hour exposure period, the rearing tray was opened, and the numbers of dead and live insects were counted. […] Using the insect counts, the activity of the test chemical was expressed in percent control. Percent control is derived from the total number of dead insects (TD) compared to the total number of insects (TI) in the test: […]

[3] = test system: cotton aphid (Aphis gossypii [Glover]); assay: Foliar leaf-dip test against cotton aphid on tomato plants; conditions: technical, 72 h
Experimental: as §1
In tests against cotton aphid, the leaves of 6 to 8 inch tall tomato plants (Lycopersicon lycoper) were infested with about 50 cotton aphids by placing leaf cuttings from a cotton aphid colony host tomato plant. After about 12 hours the newly infested tomato leaves were dipped into the test solutions of the test formulations to provide application rates as high as 1000 ppm of the active ingredients. The test formulations were dissolved in, and diluted as necessary, with distilled water containing 10% acetone and 0.25% of a non-ionic detergent [an octylphenolpoly(ethyleneglycolether)x, available from Roche Applied Science as Triton X-1001 to the proper concentrations. After treatment, a square of parafilm was placed around the stem of each test plant, covering the soil of each pot in order to catch dead aphids that fall from the leaves. The treated plants were transferred to a hood where they were kept until the leaves had dried. Once dry, the potted plants were placed into a tray containing at least one inch of water. The plants were spaced far enough apart to prevent the aphids from moving between plants. The trays were held in a growth chamber for 72 hours at 25° C., 50% relative humidity and a photoperiod of 14 hours light/10 hours dark. For tests in which the active ingredients were not formulated, i.e. the technical active ingredient was used; a stock solution of the test compound was made. For example, a 100 ppm stock solution may be made by dissolving 4 milligrams of the test compound in 4 mL of acetone and adding the solution to 36 mL of an aqueous Triton X-100 solution (one drop of Triton X-100 dissolved in 100 mL of distilled water). Further dilutions can be made by adding distilled water containing 10% acetone and 0.25% of Triton X-100.
At the end of the 72 hour exposure period the numbers of dead and live insects were counted. Insects were classified as “dead” if they were off-color or brown and desiccated. Using the insect counts, the activity of the test chemical was expressed in percent control. Percent control is derived from the total number of dead insects (TD) compared to the total number of insects (TI) in the test: […]

[4] = test system: twospotted spider mite (Tetranychus urticae [Koch]); assay: Foliar leaf-dip test against twospotted spider mite on pinto bean plants; conditions: technical, 96 h
Experimental: as §1
In tests against twospotted spider mites, the leaves of potted 3 to 4 inch tall pinto bean plants (Phaseolus vulgaris) were infested with about 50 to 75 adult twospotted spider mites by placing leaf cuttings from a twospotted spider mite colony host pinto bean plant on the upper surface of the test plant leaves. After about 1 hour the newly infested pinto bean leaves were dipped into the test solutions of the test formulations to provide application rates as high as 1000 ppm of the active ingredients. The test formulations were dissolved in, and diluted as necessary, with distilled water containing 10% acetone and 0.25% of a non-ionic detergent [an octylphenolpoly(ethyleneglycolether)x, available from Roche Applied Science as Triton X-100] to the proper concentrations. The treated plants were transferred to a hood where they were kept until the leaves had dried. Once dry, the potted plants were placed into a tray containing at least one inch of water. The plants were spaced far enough apart to prevent the mites from moving between plants. The trays were held in a growth chamber for 96 hours at 25° C., 50% relative humidity and a photoperiod of 14 hours light/10 hours dark. For tests in which the active ingredients were not formulated, i.e. the technical active ingredient was used; a stock solution of the test compound was made. For example, a 100 ppm stock solution may be made by dissolving 4 milligrams of the test compound in 4 mL of acetone and adding the solution to 36 mL of an aqueous Triton X-100 solution (one drop of Triton X-100 dissolved in 100 mL of distilled water). Further dilutions can be made by adding distilled water containing 10% acetone and 0.25% of Triton X-100.
as §2, with “period” for “period, the rearing tray was opened, and”

[5] = cyano-pyrethroid 10.0 ppm alone (bifenthrin 0 ppm)
[6] = cyano-pyrethroid 30.0 ppm alone (bifenthrin 0 ppm)
[7] = cyano-pyrethroid 100.0 ppm alone (bifenthrin 0 ppm)
[8] = cyano-pyrethroid 200.0 ppm alone (bifenthrin 0 ppm)
[9] = bifenthrin 1.0 ppm alone (cyano-pyrethroid 0 ppm)

For `CC1(C)C(C=C(Cl)Cl)C1C(=O)OC(C#N)c1cccc(Oc2ccccc2)c1` (racemic) [alpha-cypermethrin, (S)-α-cyano-3-phenoxybenzyl (1R)-cis-3-(2,2-dichlorovinyl)-2,2-dimethylcyclopropanecarboxylate and (R)-α-cyano-3-phenoxybenzyl (1S)-cis-3-(2,2-dichlorovinyl)-2,2-dimethylcyclopropanecarboxylate], the “% Mortality Adult Colorado Potato Beetle” value ([1]; cyano-pyrethroid 0.3 ppm alone (bifenthrin 0 ppm)) was 30%, the “% Mortality Adult Colorado Potato Beetle” value ([1]; cyano-pyrethroid 1.0 ppm alone (bifenthrin 0 ppm)) was 70% and the “% Mortality Adult Colorado Potato Beetle” value ([1]; cyano-pyrethroid 3.0 ppm alone (bifenthrin 0 ppm)) was 100%. The “% Mortality Adult Colorado Potato Beetle” value [1, 5] was 100%, the “% Mortality Corn Earworm” value ([2]; cyano-pyrethroid 0.3 ppm alone (bifenthrin 0.0 ppm)) was 6% and the “% Mortality Corn Earworm” value ([2]; cyano-pyrethroid 1.0 ppm alone (bifenthrin 0.0 ppm)) was 63%. For the same compound, the “% Mortality Corn Earworm” value ([2]; cyano-pyrethroid 3.0 ppm alone (bifenthrin 0.0 ppm)) was 100%, the “% Mortality Corn Earworm” value ([2]; cyano-pyrethroid 10.0 ppm alone (bifenthrin 0.0 ppm)) was 100% and the “% Mortality Cotton Aphid” value [3, 6] was 7%. For the same compound, the “% Mortality Cotton Aphid” value [3, 7] was 3%, the “% Mortality Cotton Aphid” value [3, 8] was 7% and the “% Mortality Twospotted Spider Mite” value [4, 5] was 8%. The “% Mortality Twospotted Spider Mite” value [4, 6] was 8%, the “% Mortality Twospotted Spider Mite” value [4, 7] was 16% and the “% Mortality Twospotted Spider Mite” value [4, 8] was 32%.

In the case of `Cc1c(COC(=O)[C@@H]2[C@H](/C=C(\Cl)C(F)(F)F)C2(C)C)cccc1-c1ccccc1` (racemic) [bifenthrin, 2-methylbiphenyl-3-ylmethyl (Z)-(1RS)-cis-3-(2-chloro-3,3,3-trifluoroprop-1-enyl)-2,2-dimethyl cyclopropanecarboxylate], the mortality at 0.3 ppm ([1]; Leptinotarsa decemlineata, foliar, bifenthrin 0.3 ppm alone (cyano-pyrethroid 0 ppm)) is reported as 0%, the “% Mortality Adult Colorado Potato Beetle” value [1, 9] is reported as 10% and the mortality at 0.1 ppm ([2]; Helicoverpa zea, bifenthrin 0.1 ppm alone (cyano-pyrethroid 0 ppm)) is reported as 6%. For the same compound, the mortality at 0.3 ppm ([2]; Helicoverpa zea, bifenthrin 0.3 ppm alone (cyano-pyrethroid 0 ppm)) was 13%, the “% Mortality Corn Earworm” value ([2]; bifenthrin 0.3 ppm alone (cyano-pyrethroid 0 ppm)) was 25% and the “% Mortality Corn Earworm” value [2, 9] was 100% and 75% and 63%. The mortality at 200 ppm ([3]; Aphis gossypii, foliar, bifenthrin 200.0 ppm alone (cyano-pyrethroid 0 ppm)) was 100%, the mortality at 60 ppm ([4]; Tetranychus urticae, foliar, bifenthrin 60.0 ppm alone (cyano-pyrethroid 0 ppm)) was 68% and the “% Mortality Twospotted Spider Mite” value ([4]; bifenthrin 30.0 ppm alone (cyano-pyrethroid 0 ppm)) was 66% and 100% and 69%. For the same compound, the “% Mortality Twospotted Spider Mite” value ([4]; bifenthrin 100.0 ppm alone (cyano-pyrethroid 0 ppm)) was 75% and 90% and 100%.
